ChEMBL document CHEMBL2086262, “Ligand-based designing, in silico screening, and biological evaluation of new potent fructose-1,6-bisphosphatase (FBPase) inhibitors” (Eur J Med Chem, 2012)
Active and inactive are the calls of the source. The calls are words filed in the database; no cut-off is given here.

How the values were obtained:
[1] = species on record: Homo sapiens; experiment: Inhibition of human recombinant FBPase using fructose-1,6-biphosphate as substrate at 10 uM incubated for 3 mins prior to substrate addition by spectrophotometric analysis
[2] = Inhibition of human recombinant FBPase using fructose-1,6-biphosphate as substrate incubated for 3 mins prior to substrate addition by spectrophotometric analysis

With O=C1NC(=O)C2N=C(CNc3ccc(C(=O)O)cc3)NC2N1 (centres undefined) the inhibition [1] was “inactive”.

With O=S(=O)(O)c1ccccc1/C=N/N=C/c1ccccc1S(=O)(=O)O the inhibition [1] was 100% and the IC50 [2] was 150 nM.

COC(=O)CC(=O)CC(=O)c1cccc([N+](=O)[O-])c1 gave an inhibition [1] of 74% and an IC50 [2] of 2230 nM.

With COc1cc(/C=C/Cc2c(O)ccc3c2OCO3)cc(OC)c1OC the inhibition [1] was “inactive”.

In the case of CCN1C(=O)/C(=C/c2ccc(O)c(S(=O)(=O)O)c2)SC1=S, the inhibition [1] is reported as 69% and the IC50 [2] is reported as 6020 nM.

C=CCN1C(=O)/C(=C/c2ccccc2OCC(=O)O)SC1=S gave an inhibition [1] of 77% and an IC50 [2] of 3460 nM.

In the case of O=C(OCc1ccc([N+](=O)[O-])cc1)c1ccccc1[N+](=O)[O-], the inhibition [1] is reported as 100% and the IC50 [2] is reported as 1650 nM.

In the case of COc1ccc(C(=O)/C=C2/Nc3ccc([N+](=O)[O-])cc3NC2=O)cc1, the inhibition [1] is reported as 76% and the IC50 [2] is reported as 320 nM.

O=C(CCCOc1ccc(Cl)cc1Cl)NC(CC1NCc2ccccc21)C(=O)O (centres undefined) gave an inhibition [1] of 67% and an IC50 [2] of 5880 nM.

Work on CCOC(=O)c1csc(-c2csc(CCNC(=O)c3ccccc3)n2)n1 yielded an inhibition [1] of 87% and an IC50 [2] of 330 nM.

With COc1cc(C2=N/C(=C\c3cccc(O)c3O)C(=O)O2)cc(OC)c1OC the inhibition [1] was “inactive”.

Work on O=C(O)c1ccccc1C(=O)CCC(=O)c1ccccc1C(=O)O yielded an inhibition [1] of 87% and an IC50 [2] of 900 nM.

For Cc1cc(Cl)ccc1OCCCC(=O)NC(CC(C)C)C(=O)O (centres undefined), the inhibition [1] was 60% and the IC50 [2] was 2440 nM.

Compound CC1(C)N=C(N)N=C(N)N1c1cccc(OCCOc2ccccc2[N+](=O)[O-])c1 has an inhibition [1] of 100% and an IC50 [2] of 250 nM.

Compound CC1(C)C2CCC1(C)C(OCCC/N=C(\N)CSS(=O)(=O)O)C2 (centres undefined) has an inhibition [1] of 81% and an IC50 [2] of 3800 nM.

With CCOc1cc2nc(CCN)nc(Nc3cccc(-c4csc(C)n4)c3)c2cc1OCC the IC50 [2] was 220 nM.

In the case of Cc1nc(-c2cccc(Nc3ncnc4cc5ccccc5cc34)c2)cs1, the IC50 [2] is reported as over 10000 nM.

COc1cc2nc(C)nc(Nc3cccc(Br)c3)c2cc1OC gave an IC50 [2] of 4500 nM.

Work on CCOc1cc2ncnc(Nc3cc(-c4csc(C)n4)ccc3C)c2cc1OCC yielded an IC50 [2] of 1800 nM.

Work on CCOc1cc2ncnc(Nc3cccc(-c4nc(C(N)=O)cs4)c3)c2cc1OCC yielded an IC50 [2] of 830 nM.

For C[N+](C)(CCCCOc1c(Br)cc(Br)cc1Br)Cc1ccc([N+](=O)[O-])o1, the inhibition [1] was 100% and the IC50 [2] was 700 nM.

In the case of CCOc1cc2ncnc(Nc3cc(-c4csc(C)n4)ccc3CC)c2cc1OCC, the IC50 [2] is reported as 2100 nM.

For NC(=O)c1[nH]c2cc(Cl)cc(Cl)c2c1CCC(=O)O, the IC50 [2] was over 10000 nM.

For CCOc1cc2ncnc(Nc3ccccc3)c2cc1OCC, the IC50 [2] was over 10000 nM.

CCOc1cc2ncnc(Nc3cccc(-c4ccco4)c3)c2cc1OCC gave an IC50 [2] of 1400 nM.

With CCOc1cc2ncnc(Nc3cccc(-c4cncnc4)c3)c2cc1OCC the IC50 [2] was 1200 nM.

With CCOc1cc2ncnc(Nc3cccc(-c4cc[nH]n4)c3)c2cc1OCC the IC50 [2] was 730 nM.

CCOc1cc2ncnc(Nc3cccc(F)c3)c2cc1OCC showed an IC50 [2] of 9200 nM.

CCOc1cc2ncnc(Nc3ccc(Cl)c(Cl)c3)c2cc1OCC gave an IC50 [2] of over 10000 nM.

With CCOc1cc2ncnc(Nc3cccc(-c4csc(C)n4)c3)c2cc1OCC the IC50 [2] was at least 640 nM.

CCOc1cc2ncnc(Nc3cccc(Br)c3)c2cc1[N+](=O)[O-] showed an IC50 [2] of 3600 nM.

O=S(=O)(SCCCCSS(=O)(=O)c1ccc(Cl)cc1)c1ccc(Cl)cc1 showed an inhibition [1] of 37%.

For Nc1ncnc2c1ncn2[C@@H]1O[C@H](COP(=O)(O)O)[C@@H](O)[C@H]1O [ADENOSINE PHOSPHATE], the IC50 [2] was 12300 nM.

For CCOc1cc2nc(Cc3ccccc3)nc(Nc3cccc(Br)c3)c2cc1OCC, the IC50 [2] was over 10000 nM.

In the case of CCOc1cc2ncnc(Nc3cccc(-c4csc(OC)n4)c3)c2cc1OCC, the IC50 [2] is reported as 780 nM.

For CCCOc1cc2c(Nc3cccc(-c4csc(C)n4)c3)ncnc2cc1OC, the IC50 [2] was over 10000 nM.
